Key:
CYP3A4 [1] = biological target: T1, CYP3A4 (Homo sapiens (Human), UniProt P08684); assay: Time-dependent inhibition of site of metabolism of testosterone in human liver microsome CYP3A4; type: in vitro ADME; details: for IC50: testosterone site
Description: • 1. Phosphate buffer (20×PBS, purchased from Sangon); • 2. NADPH (ACROS, A2646-71-1); • 3. Human liver microsome (Corning Gentest, Cat No. 452161, Lot No. 905002, Donor36); • 4. ABI QTrap 4000 LC-MS System (AB Sciex); • 5. ZORBAX Extend-C18, 3×50 mm, 3.5 m (Agilent, USA); • 6. CYP probe substrate (testosterone, Vocko, CAS No. [58-22-0]/75 μM) and positive control inhibitor (verapamil, Adamas Reagent Co., Ltd, Cat No. 25904A).
(§1) A 100 mM PBS buffer was prepared. A 0.25 mg/mL microsome solution, a 7.5 mM MgCl2 and a 5 mM NADPH solution were prepared using the buffer. A 30 mM stock solution was diluted with DMSO to obtain 30 mM, 10 mM, 3 mM, 1 mM, 0.3 mM, 0.1 mM, 0.03 mM and 0 mM serial solutions I, which were further diluted 200-fold with phosphate buffer (PBS) to obtain serial test solutions II (150, 50, 15, 5, 1.5, 0.5, 0.15 and 0 μM). A midazolam working solution was diluted with PBS to 15 μM.
The serial test solutions prepared above were well mixed by shaking and aliquoted in 20 μL portions into corresponding reaction plates (+NADPH, TO and -NADPH groups were set). Three parallel tests were set. 40 μL of the liver microsome working solution was added to each 96-well plate. 20 μL of a corresponding substrate solution was added to the TO plate. 20 μL of NADPH was added to the TO plate and +NADPH group. A timer was started, and the plates were incubated in a water bath at 37° C. After 30 min of incubation, the TO plate was taken out, and the reaction was terminated with 250 μL of an internal standard-containing ACN solution. The +NADPH group was supplemented with 20 μL of the corresponding substrate solution, and the −NADPH group was supplemented with 20 μL of the corresponding substrate solution and 20 μL of NADPH. A timer was started, and the plates were incubated in a water bath at 37° C. After 30 min of incubation, the plates were taken out, and the reactions were terminated with 250 μL of an internal standard-containing ACN solution. […]
The IC50 value of the drug for the site of metabolism of testosterone in CYP3A4 was calculated by Graphpad Prism and is shown in Table 8.

CYP3A4 [2] = biological target: T1, CYP3A4; assay: Inhibition of site of metabolism of midazolam in human liver microsome CYP3A4; type: in vitro ADME; details: 30 min
Description: • 1. Phosphate buffer (20×PBS, purchased from Sangon); • 2. NADPH (ACROS, A2646-71-1); • 3. Human liver microsome (Corning Gentest, Cat No. 452161, Lot No. 9050002, Donor, 36); • 4. ABI QTrap 4000 LC-MS System (AB Sciex); • 5. ZORBAX Extend-C18, 3×50 mm, 3.5 m (Agilent, USA); • 6. CYP probe substrate (midazolam, TRC, M343000/3 μM) and positive control inhibitor (ketoconazole, SIGMA, Cat No. K1003-100MG).
as §1, with “0.03” for “0.1”, “0.003” for “0.03”, “0.15, 0.015” for “0.5, 0.15”, “μM. 40 μL of a 0.25 mg/mL microsome solution prepared in 7.5 mM MgCl2 and 20 μL of each of the […] midazolam working solution and the compound working solutions (150, 50, 15, 5, 1.5, 0.15, 0.015 and 0 μM) were measured out and well mixed. Ketoconazole at the same concentration was used in place of the compound as a positive control group. […]” for “μM.”
The IC50 value of the drug for the site of metabolism of midazolam in CYP3A4 was calculated by Graphpad Prism and is shown in Table 5.

T1 sequence (P08684 whole entry): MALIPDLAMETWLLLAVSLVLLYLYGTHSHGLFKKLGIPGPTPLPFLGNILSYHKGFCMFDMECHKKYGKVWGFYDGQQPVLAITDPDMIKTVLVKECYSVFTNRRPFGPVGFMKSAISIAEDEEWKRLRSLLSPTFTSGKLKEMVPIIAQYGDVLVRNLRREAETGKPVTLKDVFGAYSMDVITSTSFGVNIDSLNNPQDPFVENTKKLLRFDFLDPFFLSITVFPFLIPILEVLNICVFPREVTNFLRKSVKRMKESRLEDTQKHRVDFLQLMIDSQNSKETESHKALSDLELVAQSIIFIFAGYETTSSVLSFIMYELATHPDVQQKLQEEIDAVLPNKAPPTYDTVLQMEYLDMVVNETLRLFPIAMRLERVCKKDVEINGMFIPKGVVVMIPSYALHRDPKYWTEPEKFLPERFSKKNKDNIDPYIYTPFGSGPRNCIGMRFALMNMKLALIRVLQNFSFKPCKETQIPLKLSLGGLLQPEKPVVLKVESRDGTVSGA

[2H]C1([2H])Oc2cc3c(cc2O1)[C@@H](c1ccc(NC2CN(CCCF)C2)cn1)N(CC(F)(F)CO)[C@H](C)C3 [Compound 1, 2,2-Difluoro-3-((5S,7R)-5-(5-((1-(3-fluoropropyl)azetidin-3-yl)amino)pyridin-2-yl)-7-methyl-7,8-dihydro-[1,3]dioxolo[4,5-g]isoquinolin-6(5H)-yl-2,2-d2)propan-1-ol]
IC50 Shift (CYP3A4 [1]; microsomes): No TDI
IC50 (CYP3A4 [1]; pre-incubation with NADPH 30 min): > 30 µM
IC50 (CYP3A4 [1]; pre-incubation without NADPH): > 30 µM
IC50 (CYP3A4 [2]): 15.4 µM

Reference: US20240374581A1, “SALT TYPES OF TRICYCLIC TETRAHYDRO ISOQUINOLINE DERIVATIVE” (JIANGSU HENGRUI PHARMACEUTICALS CO., LTD., priority 2021, published 2024)
